Assay results: article PMC4874602 (ACS Infectious Diseases, 2016)
Like-named read-outs stand apart in the source and are kept apart here.

Assays:
[1] = system: THP-1 cells; settings: 30 min exposure, 1 mM PZA, 0.4 mM POA
[2] = in vivo; settings: BALB/c, mouse, po, 150 mg/kg; for half-life: t1/2, BALB/c
[3] = C3HeB/FeJ, single 150 mg/kg oral dose of PZA
[4] = in vivo; settings: C3HeB/FeJ, mouse, po, 150 mg/kg; for half-life: t1/2, C3HeB/FeJ
[5] = BALB/c, single 150 mg/kg oral dose of PZA
[6] = in vivo; settings: BALB/c and C3HeB/FeJ, mouse, 150 mg/kg
[7] = system: M. tuberculosis Erdman; assay type: in vivo, Mycobacterium tuberculosis; settings: C3HeB/FeJ, P < 0.01
[8] = system: Mycobacterium tuberculosis; settings: pH 7.0; standard laboratory culture conditions; cited from earlier work
[9] = system: M. tuberculosis Erdman; assay type: in vivo, Mycobacterium tuberculosis; settings: BALB/c, P < 0.01
[10] = AUCUL/AUCplasma, uninvolved lung, single 150 mg/kg oral dose of PZA
[11] = AUCWL/AUCplasma, whole lung, single 150 mg/kg oral dose of PZA
[12] = lesion (cellular non-necrotizing, type III), single 150 mg/kg oral dose of PZA
[13] = plasma, single 150 mg/kg oral dose of PZA
[14] = uninvolved lung, single 150 mg/kg oral dose of PZA
[15] = whole lung, single 150 mg/kg oral dose of PZA
[16] = lesion (type III), single 150 mg/kg oral dose of PZA
[17] = plasma, single 150 mg/kg oral dose of PZA, 2.5–8 h terminal
[18] = lesion (caseous necrotic granuloma, type I), single 150 mg/kg oral dose of PZA
[19] = lesion (type I), single 150 mg/kg oral dose of PZA
[20] = PZA 150 mg/kg, first 3 weeks of treatment
[21] = PZA 300 mg/kg vs 150 mg/kg, first 3 weeks

O=C(O)c1cnccn1 [POA, pyrazinoic acid]
accumulation within THP-1 cells [1]: accumulated to a very low degree
AUC(0-t) [2]: 127 µg·h/mL
Kp ([2]; AUCLes/AUCplasma, lesion (type III), single 150 mg/kg oral dose of PZA): 0.78
Kp [2, 10]: 0.31
Kp [2, 11]: 0.42
Cmax [2, 12]: 25000 ng/g
Cmax [2, 13]: 42.5 µg/mL
Cmax [2, 14]: 10300 ng/g
Cmax [2, 15]: 14700 ng/g
half-life [2, 16]: 49.8 min
half-life [2, 17]: 74.4 min
half-life [2, 14]: 14.4 min
half-life [2, 15]: 14.4 min
Tmax [2, 16]: 60 min
Tmax [2, 13]: 30 min
Tmax [2, 14]: 30 min
Tmax [2, 15]: 30 min
AUC8h ([3]; lesion (type I)): 75.1 µg·h/g
AUC8h ([3]; uninvolved lung): 30.4 µg·h/g
AUC8h ([3]; whole lung): 43.9 µg·h/g
AUC(0-t) [4]: 58.7 µg·h/mL
Kp ([4]; AUCLes/AUCplasma, lesion (type I), single 150 mg/kg oral dose of PZA): 1.28
Kp [4, 10]: 0.52
Kp [4, 11]: 0.75
Cmax [4, 18]: 12500 ng/g
Cmax [4, 13]: 14.2 µg/mL
Cmax [4, 14]: 8300 ng/g
Cmax [4, 15]: 9000 ng/g
half-life [4, 19]: 726 min
half-life [4, 17]: 144 min
half-life [4, 14]: 234 min
half-life [4, 15]: 308 min
Tmax [4, 19]: 1 h
Tmax [4, 13]: 0.75 h
Tmax [4, 14]: 1 h
Tmax [4, 15]: 1 h
AUC8h ([5]; lesion (type III)): 99.5 µg·h/g
AUC8h ([5]; uninvolved lung): 39.0 µg·h/g
AUC8h ([5]; whole lung): 53.7 µg·h/g
Tmax [6]: 30 to 60 min

NC(=O)c1cnccn1 [PZA, pyrazinamide]
accumulation within THP-1 cells [1]: accumulated to a very low degree
AUC(0-t) [2]: 346 µg·h/mL
Kp ([2]; AUCLes/AUCplasma): 1.33
Kp ([2]; AUCUL/AUCplasma): 0.76
Kp ([2]; AUCWL/AUCplasma): 0.86
Cmax [2, 12]: 146000 ng/g
Cmax [2, 13]: 161 µg/mL
Cmax [2, 14]: 93600 ng/g
Cmax [2, 15]: 123000 ng/g
half-life [2, 16]: 57.6 min
half-life [2, 17]: 63 min
half-life [2, 14]: 45 min
half-life [2, 15]: 61.2 min
Tmax [2, 16]: 30 min
Tmax [2, 13]: 30 min
Tmax [2, 14]: 30 min
Tmax [2, 15]: 30 min
AUC8h ([3]; lesion (type I)): 351.8 µg·h/g
AUC8h ([3]; uninvolved lung): 237.9 µg·h/g
AUC8h ([3]; whole lung): 306.3 µg·h/g
AUC(0-t) [4]: 329 µg·h/mL
Kp ([4]; AUCLes/AUCplasma): 1.07
Kp ([4]; AUCUL/AUCplasma): 0.72
Kp ([4]; AUCWL/AUCplasma): 0.93
Cmax [4, 18]: 94700 ng/g
Cmax [4, 13]: 87.4 µg/mL
Cmax [4, 14]: 66200 ng/g
Cmax [4, 15]: 76500 ng/g
half-life [4, 19]: 173 min
half-life [4, 17]: 156 min
half-life [4, 14]: 181 min
half-life [4, 15]: 169 min
Tmax [4, 19]: 1 h
Tmax [4, 13]: 0.75 h
Tmax [4, 14]: 1 h
Tmax [4, 15]: 1 h
change in pulmonary CFU [7, 20]: significant decrease in pulmonary CFU
change in pulmonary CFU [7, 21]: larger decrease in CFU
AUC8h ([5]; lesion (type III)): 459.4 µg·h/g
AUC8h ([5]; uninvolved lung): 262.8 µg·h/g
AUC8h ([5]; whole lung): 298.6 µg·h/g
Tmax [6]: 30 to 60 min
MIC [8]: > 1000 mg/mL
change in pulmonary CFU [9, 20]: significant decrease in pulmonary CFU
change in pulmonary CFU [9, 21]: larger decrease in CFU
